Measured values: PubChem BioAssay (NCI)
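A five-concentration, 48-hour dose response in 96-well plates underlies each endpoint, interpolated linearly between surrounding concentrations. At the GI50, growth is halved. The concentration for full growth arrest is given as TGI.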 Where a SMILES comes first, the peptide text is derived from it. Side-chain parts run from the residue outwards. The star is where a group is joined. Cbz = O=C(OCc1ccccc1)*; Boc = CC(C)(C)OC(=O)*

Columns and labels:
Assay in all cases: growth of human tumour cells (NCI), 48 h
SNB-75 CNS = test system: SNB-75 CNS
IGROV1 ovarian = test system: IGROV1 ovarian
EKVX NSCLC = test system: EKVX NSCLC
RPMI-8226 leukemia = test system: RPMI-8226 leukemia
TK-10 renal = test system: TK-10 renal
HCC-2998 colon = test system: HCC-2998 colon
HOP-62 NSCLC = test system: HOP-62 NSCLC
MDA-MB-435 = test system: MDA-MB-435
K-562 leukemia = test system: K-562 leukemia
UO-31 renal = test system: UO-31 renal
UACC-257 melanoma = test system: UACC-257 melanoma
DU-145 prostate = test system: DU-145 prostate
OVCAR-4 ovarian = test system: OVCAR-4 ovarian
SF-295 CNS = test system: SF-295 CNS
RXF 393 renal = test system: RXF 393 renal

SMILES | TGI (SNB-75 CNS) | TGI (IGROV1 ovarian) | TGI (EKVX NSCLC) | TGI (RPMI-8226 leukemia) | TGI (TK-10 renal) | TGI (HCC-2998 colon) | TGI (HOP-62 NSCLC) | TGI (MDA-MB-435) | TGI (K-562 leukemia) | TGI (UO-31 renal) | TGI (UACC-257 melanoma) | TGI (DU-145 prostate) | TGI (OVCAR-4 ovarian) | TGI (SF-295 CNS) | TGI (RXF 393 renal) | GI50 (RXF 393 renal) | GI50 (SF-295 CNS)
COc1ccc2c(c1)-c1c(c3ccccc3n1CCN1CCOCC1)CC2 | 49 µM | 38.5 µM | 63.8 µM | 97 µM | 1.78 µM | 34.3 µM | 74.8 µM | > 100 µM | 54.5 µM | 96.8 µM | > 100 µM | > 100 µM | > 100 µM | 35.5 µM | – | – | –
CC(C)CC(NC(=O)OCc1ccccc1)C(=O)NCCCCC(NC(=O)C(CCCCNC(=O)C(CC(C)C)NC(=O)OCc1ccccc1)NC(=O)C(CCCCNC(=O)C(CC(C)C)NC(=O)OCc1ccccc1)NC(=O)C(CCCCNC(=O)C(CC(C)C)NC(=O)OCc1ccccc1)NC(=O)OC(C)(C)C)C(=O)O (centres undefined) (Boc-K([Leu-Cbz])K([Leu-Cbz])K([Leu-Cbz])K([Leu-Cbz])-OH; configuration not given here) | > 25 µM | > 25 µM | – | > 25 µM | > 25 µM | > 25 µM | > 25 µM | > 25 µM | > 25 µM | > 25 µM | > 25 µM | > 25 µM | > 25 µM | – | – | – | –
CCOC(=O)CC(=Nc1cc(C)on1)N(CC)CC | > 100 µM | > 100 µM | > 100 µM | > 100 µM | > 100 µM | – | > 100 µM | – | > 100 µM | > 100 µM | – | – | – | – | – | – | –
Cc1ccc(C(=O)NC(C)C)cc1N=NN(C)C | – | > 100 µM | > 100 µM | – | > 100 µM | > 100 µM | > 100 µM | – | – | > 100 µM | > 100 µM | – | > 100 µM | > 100 µM | – | – | –
O=C(O)C1Cc2ccccc2OC1=O (centres undefined) | – | > 100 µM | > 100 µM | > 100 µM | > 100 µM | > 100 µM | > 100 µM | > 100 µM | > 100 µM | > 100 µM | > 100 µM | > 100 µM | – | > 100 µM | > 100 µM | – | –
CCc1c(-c2coc(CC/C(C)=C/c3ccccc3)n2)oc(OC)c(C)c1=O | > 100 µM | > 100 µM | > 100 µM | > 100 µM | > 100 µM | > 100 µM | > 100 µM | – | > 100 µM | > 53.1 µM | > 100 µM | – | > 55.5 µM | > 100 µM | – | – | –
C[n+]1c(-c2ccc(/C=N/Nc3n[nH]c(=S)n3N/N=C/c3ccc(-c4cn5ccccc5[n+]4C)cc3)cc2)cn2ccccc21 | > 100 µM | > 100 µM | > 100 µM | > 100 µM | > 100 µM | > 100 µM | > 100 µM | > 100 µM | > 100 µM | > 100 µM | > 100 µM | – | > 100 µM | > 100 µM | – | – | –
CC1(C)C(C(=O)OC(C#N)c2cccc(OCC(=O)OCc3ccccc3)c2)C1(C)C (centres undefined) | > 100 µM | > 100 µM | > 100 µM | – | > 100 µM | – | > 100 µM | > 100 µM | > 100 µM | > 100 µM | > 100 µM | > 100 µM | > 100 µM | > 100 µM | > 100 µM | – | –
COc1cc(C(c2cc(OC)c(OC)c(OC)c2)N2C(=O)CCC2C(=O)O)cc(OC)c1OC (centres undefined) | > 100 µM | > 100 µM | > 100 µM | > 100 µM | – | – | > 100 µM | > 100 µM | > 100 µM | > 100 µM | > 100 µM | > 100 µM | > 100 µM | > 100 µM | > 100 µM | – | –
C=CC[C@@]1(C#N)C[C@H](C[C@]2(C#N)C[C@H](CCl)OC(C)(C)O2)OC(C)(C)O1 | > 100 µM | > 100 µM | > 100 µM | > 100 µM | > 100 µM | > 100 µM | > 100 µM | – | > 100 µM | > 100 µM | > 100 µM | – | > 100 µM | > 100 µM | > 100 µM | – | –
CCCCCCCCCCCCCCCCCCNC(=S)/N=C/c1c(O)cc(C)oc1=O | 49.3 µM | 55.8 µM | 57.9 µM | – | 35.9 µM | 39 µM | > 100 µM | 55.6 µM | – | 39.4 µM | 65.3 µM | > 100 µM | 80 µM | 64.7 µM | – | – | –
Cc1ccc(N2C(=O)C(O)=C(C(=O)C(C)(C)C)C2c2ccc([N+](=O)[O-])cc2)cc1 (centres undefined) | – | 43.7 µM | 67.1 µM | 49.4 µM | 90.8 µM | 45.4 µM | 49.2 µM | 44.7 µM | 85.2 µM | 89.3 µM | 34.8 µM | > 100 µM | 22.3 µM | 88.8 µM | – | – | –
[N-]=[N+]=NC(c1cn(C2CC(O)C(CO)O2)c(=O)[nH]c1=O)C(I)I (centres undefined) | – | > 100 µM | > 100 µM | > 100 µM | > 100 µM | > 100 µM | > 100 µM | – | > 100 µM | > 100 µM | > 100 µM | – | > 100 µM | > 100 µM | > 100 µM | – | –
N#CCCCCC12C3C(=O)N(c4ccccc4)C(=O)C3ON1O[C@@H]1C(=O)N(c3ccccc3)C(=O)[C@@H]12 (some centres undefined) | – | > 100 µM | > 100 µM | – | > 100 µM | > 100 µM | > 100 µM | > 100 µM | > 100 µM | > 100 µM | > 100 µM | > 100 µM | > 100 µM | > 100 µM | – | – | –
CCOC(=S)SC/C(=N\OC(C)(C)OC)c1ccccc1 | – | > 100 µM | > 100 µM | – | > 100 µM | 61.8 µM | > 100 µM | 65.7 µM | 56 µM | 95.8 µM | > 100 µM | > 100 µM | > 100 µM | > 100 µM | 70 µM | – | –
COc1ccc(CCN2CCOCC2)cc1 | – | > 100 µM | > 100 µM | > 100 µM | > 100 µM | > 100 µM | > 100 µM | > 100 µM | > 100 µM | > 100 µM | > 100 µM | > 100 µM | – | > 100 µM | > 100 µM | – | –
COc1ccc2c(c1)Cc1c-2[nH]c2cc3c(cc2c1=O)OCO3 | – | 59.5 µM | > 100 µM | 35.8 µM | 83.3 µM | 51 µM | 45.1 µM | – | > 100 µM | 89 µM | – | – | > 100 µM | 51.7 µM | 19.5 µM | – | –
O=S(=O)(Nc1nc(-c2cc(O)c(O)c(O)c2)cs1)c1ccc(Cl)cc1Cl | 77.6 µM | 45.9 µM | 33.5 µM | 40.8 µM | 36.2 µM | – | 35.1 µM | 56.9 µM | 48 µM | 46.5 µM | 67.7 µM | 53.8 µM | 47.9 µM | 34.4 µM | 71.4 µM | – | –
CCC(c1nc2ccccc2c(=O)n1NC(=O)C(C)(C)C)C1(O)CCCCC1 (centres undefined) | > 100 µM | > 100 µM | > 100 µM | > 100 µM | – | – | > 100 µM | > 100 µM | > 100 µM | > 100 µM | > 100 µM | > 100 µM | > 100 µM | > 100 µM | > 100 µM | – | –
CCC(C)N1CN(c2ccccc2)C2(CCN(CCCC(=O)c3ccc(F)cc3)CC2)C1=O (centres undefined) | 38.3 µM | 18.7 µM | 36.4 µM | 31.5 µM | 16.5 µM | – | 4.51 µM | 27.5 µM | > 100 µM | 15.6 µM | – | 13.4 µM | 16.2 µM | 15.8 µM | 30 µM | – | –
O=c1cc(-c2ccc[nH]2)[nH]c2cc3c(cc12)OCO3 | 68.9 µM | > 100 µM | > 100 µM | > 100 µM | > 100 µM | 86.5 µM | 93.5 µM | – | > 100 µM | > 100 µM | > 100 µM | – | 56 µM | > 100 µM | 47 µM | 15.9 µM | 33.8 µM
CC[S+](C)c1ccc(-c2c3nc(c(-c4ccc([S+](C)CC)cc4)c4ccc([nH]4)c(-c4ccc([S+](C)CC)cc4)c4nc(c(-c5ccc([S+](C)CC)cc5)c5ccc2[nH]5)C=C4)C=C3)cc1 (centres undefined) | > 100 µM | – | 94.8 µM | 41 µM | – | – | 93.5 µM | – | > 100 µM | – | > 100 µM | – | > 100 µM | > 100 µM | 63.3 µM | – | –
COC(=O)Nc1nc2ccc(NS(=O)(=O)c3ccc(F)cc3)cc2[nH]1 | 70.1 µM | 9.93 µM | > 100 µM | 81.2 µM | 87 µM | – | > 100 µM | 11.2 µM | > 100 µM | > 100 µM | – | > 100 µM | > 100 µM | 70.4 µM | 78.6 µM | – | –
Cc1cc(C)c(N)c(C)c1N | – | > 100 µM | > 100 µM | > 100 µM | > 100 µM | > 100 µM | > 100 µM | – | > 100 µM | > 100 µM | > 100 µM | – | – | > 100 µM | > 100 µM | – | –
CN(c1ccccc1Cl)S(=O)(=O)c1ccccc1 | > 100 µM | > 100 µM | > 100 µM | > 100 µM | > 100 µM | – | > 100 µM | > 100 µM | > 100 µM | > 100 µM | > 100 µM | > 100 µM | > 100 µM | > 100 µM | – | – | –
CCOc1ccc(C(c2c(O)c3ccccc3oc2=O)c2c(O)c3ccccc3oc2=O)cc1 | – | > 100 µM | > 100 µM | 93.8 µM | > 100 µM | – | > 100 µM | > 100 µM | > 100 µM | > 100 µM | > 100 µM | > 100 µM | > 100 µM | > 100 µM | – | – | –
